Converted amounts (≈) assume the structure as drawn.
What was measured:
MRSA (13B262) = experiment: MIC, broth microdilution (CLSI), clinical isolate; format: cell-based; conditions: Staphylococcus aureus
From the text: (§1) 6 standard strains and 3 clinical isolates were used to the preliminary evaluation of in vitro antibacterial activities of oxazolidinone-fluoroquinolone hybrids. For the further evaluation of hybrids OBP-4 and OBP-5, 263 clinical isolates including S. aureus (46), S. haemolyticus(32), S. epidermidis (10), E. faecalis (72), E. faecium (47), S. pneumoniae (13), H. parasuis (34), S. suis (9), and 8 resistant strains including MRSA, MRSE, CIP-resistant S. aureus and S. haemolyticus, VAN and quinolone-resistant S. pneumoniae, LZD-resistant E. faecalis, LZD/VAN and quinolone-resistant E. faecium were collected and tested.
(§2) Susceptibility testing of oxazolidinone-fluoroquinolone hybrids against various bacteria was performed by the broth microdilution method as outlined by the Clinical and Laboratory Standards Institute (CLSI). Three types of media, including cation-adjusted Mueller Hinton broth, Haemophilus Test Medium and cation-adjusted Mueller Hinton broth that contained 3%–5% lysed horse blood, were used to culture the corresponding bacteria. All compounds including comparator drugs were dissolved in an appropriate solvent at a concentration of 2.048 mg/mL and then serially diluted two-fold to provide the required concentrations. A final inoculum of 5 × 10^5 CFU/mL was used and plates were read after incubation for 16–24 h at 35 °C. […] Standard quality control strains (ATCC) were included throughout. Each determination was repeated in triplicate.

[1] = tested on: S. agalactiae^R (13B317), levofloxacin-resistant S. agalactiae; experiment: MIC, broth microdilution (CLSI), clinical isolate; format: cell-based; conditions: Streptococcus agalactiae; levofloxacin-resistant S. agalactiae (13B317)
From the text: as §1, §2

E. coli (ATCC25922) = experiment: MIC, broth microdilution (CLSI), standard strain; format: cell-based; conditions: Escherichia coli, ATCC25922
From the text: as §1, §2

E. faecalis (ATCC29212) = experiment: MIC, broth microdilution (CLSI), standard strain; format: cell-based; conditions: Enterococcus faecalis; E. faecalis (ATCC29212); read-out: MIC
From the text: as §1, §2

[2] = tested on: H. influenzae (ATCC49247); experiment: MIC, broth microdilution (CLSI), standard strain; format: cell-based; conditions: Haemophilus influenzae
From the text: as §1, §2

[3] = tested on: P. Aeruginosa (ATCC27853); experiment: MIC, broth microdilution (CLSI), standard strain; format: cell-based; conditions: Pseudomonas aeruginosa, ATCC27853
From the text: as §1, §2

S. aureus (ATCC29213) = experiment: MIC, broth microdilution (CLSI), standard strain; format: cell-based; conditions: Staphylococcus aureus
From the text: as §1, §2

[4] = tested on: S. pneumoniae (ATCC49619); experiment: MIC, broth microdilution (CLSI), standard strain; format: cell-based; conditions: Streptococcus pneumoniae
From the text: as §1, §2

[5] = tested on: S. aureus (46) clinical isolates; experiment: Susceptibility of clinical isolates (MIC); format: cell-based, Staphylococcus aureus
Experimental: as §2, with “All compounds including comparator drugs were dissolved in an appropriate solvent at a concentration of 2.048 mg/mL and then serially diluted two-fold to provide the required concentrations.” left out

[6] = tested on: S. pneumoniae (13) clinical isolates; experiment: Susceptibility of clinical isolates (MIC); format: cell-based, Streptococcus pneumoniae
Experimental: as §2, with “All compounds including comparator drugs were dissolved in an appropriate solvent at a concentration of 2.048 mg/mL and then serially diluted two-fold to provide the required concentrations.” left out

[7] = tested on: E. faecalis (72) clinical isolates; experiment: Susceptibility of clinical isolates (MIC); format: cell-based, Enterococcus faecalis
Experimental: as §2, with “All compounds including comparator drugs were dissolved in an appropriate solvent at a concentration of 2.048 mg/mL and then serially diluted two-fold to provide the required concentrations.” left out

[8] = tested on: E. faecium (47) clinical isolates; experiment: Susceptibility of clinical isolates (MIC); format: cell-based, Enterococcus faecium
Experimental: as §2, with “All compounds including comparator drugs were dissolved in an appropriate solvent at a concentration of 2.048 mg/mL and then serially diluted two-fold to provide the required concentrations.” left out

[9] = tested on: H. parasuis (34) clinical isolates; experiment: Susceptibility of clinical isolates (MIC); format: cell-based, Haemophilus parasuis; conditions: Glaesserella parasuis, H. parasuis, 34 clinical isolates
Experimental: as §2, with “All compounds including comparator drugs were dissolved in an appropriate solvent at a concentration of 2.048 mg/mL and then serially diluted two-fold to provide the required concentrations.” left out

[10] = tested on: LZD-resistant E. faecalis; experiment: microbe, parasite or virus in culture; format: cell-based; conditions: Enterococcus faecalis
Experimental: (§3) 6 standard strains and 3 clinical isolates were used to the preliminary evaluation of in vitro antibacterial activities of oxazolidinone-fluoroquinolone hybrids.
as §2, with “All compounds including comparator drugs were dissolved in an appropriate solvent at a concentration of 2.048 mg/mL and then serially diluted two-fold to provide the required concentrations.” left out

CIP-resistant S. aureus = experiment: MIC against drug-resistant strain; format: cell-based; conditions: Staphylococcus aureus; S. aureus, CIP-resistant; read-out: MIC
Experimental: as §3
as §2, with “All compounds including comparator drugs were dissolved in an appropriate solvent at a concentration of 2.048 mg/mL and then serially diluted two-fold to provide the required concentrations.” left out

[11] = tested on: CIP-resistant S. haemolyticus; experiment: MIC against drug-resistant strain; format: cell-based; conditions: Staphylococcus haemolyticus; S. haemolyticus, CIP-resistant; read-out: MIC
Experimental: as §3
as §2, with “All compounds including comparator drugs were dissolved in an appropriate solvent at a concentration of 2.048 mg/mL and then serially diluted two-fold to provide the required concentrations.” left out

[12] = tested on: LZD and quinolone-resistant E. faecium; experiment: MIC against drug-resistant strain; format: cell-based; conditions: Enterococcus faecium; E. faecium, LZD and quinolone-resistant; read-out: MIC
Experimental: as §3
as §2, with “All compounds including comparator drugs were dissolved in an appropriate solvent at a concentration of 2.048 mg/mL and then serially diluted two-fold to provide the required concentrations.” left out

MRSA = experiment: MIC against drug-resistant strain; format: cell-based; conditions: Staphylococcus aureus, read-out: MIC
Experimental: as §3
as §2, with “All compounds including comparator drugs were dissolved in an appropriate solvent at a concentration of 2.048 mg/mL and then serially diluted two-fold to provide the required concentrations.” left out

[13] = tested on: VAN and quinolone-resistant E. faecium; experiment: MIC against drug-resistant strain; format: cell-based; conditions: Enterococcus faecium; E. faecium, VAN and quinolone-resistant; read-out: MIC
Experimental: as §3
as §2, with “All compounds including comparator drugs were dissolved in an appropriate solvent at a concentration of 2.048 mg/mL and then serially diluted two-fold to provide the required concentrations.” left out

[14] = E. faecalis clinical isolates, CLSI criteria
[15] = Enterococcus faecalis, E. faecalis, 72 clinical isolates
[16] = E. faecium clinical isolates, CLSI criteria

CC(=O)NC[C@H]1CN(c2ccc(N3CCOCC3)c(F)c2)C(=O)O1 [LZD, linezolid, reference compound]
MIC (MRSA (13B262)): 4 µg/mL (≈ 11.9 µM)
MIC [1]: 1 µg/mL (≈ 2.96 µM)
MIC (E. coli (ATCC25922)): 128 µg/mL (≈ 379 µM)
MIC (E. faecalis (ATCC29212)): 4 µg/mL (≈ 11.9 µM)
MIC [2]: 8 µg/mL (≈ 23.7 µM)
MIC [3]: 128 µg/mL (≈ 379 µM)
MIC (S. aureus (ATCC29213)): 4 µg/mL (≈ 11.9 µM)
MIC [4]: 1 µg/mL (≈ 2.96 µM)
CLSI %S (susceptible) ([5]; S. aureus clinical isolates, CLSI criteria): 100.0/- %
MIC50 ([5]; Staphylococcus aureus, S. aureus, 46 clinical isolates, read-out: MIC50): 2 µg/mL (≈ 5.93 µM)
MIC90 ([5]; Staphylococcus aureus, S. aureus, 46 clinical isolates, read-out: MIC90): 2 µg/mL (≈ 5.93 µM)
MIC ([5]; Staphylococcus aureus, S. aureus, 46 clinical isolates, read-out: MIC Range): 0.5 to 2 µg/mL (≈ 1.48 to 5.93 µM)
CLSI %S (susceptible) ([6]; S. pneumoniae clinical isolates, CLSI criteria): 76.9/- %
MIC Range ([6]; S. pneumoniae, 13 clinical isolates): 0.5 to 4 µg/mL
MIC50 ([6]; Streptococcus pneumoniae, S. pneumoniae, 13 clinical isolates, read-out: MIC50): 0.5 µg/mL (≈ 1.48 µM)
MIC90 ([6]; Streptococcus pneumoniae, S. pneumoniae, 13 clinical isolates, read-out: MIC90): 0.5 µg/mL (≈ 1.48 µM)
CLSI %R (resistant) [7, 14]: 2.7%
CLSI %S (susceptible) [7, 14]: 97.3%
MIC Range ([7]; E. faecalis, 72 clinical isolates): 0.5 to 8 µg/mL
MIC50 [7, 15]: 2 µg/mL (≈ 5.93 µM)
MIC90 [7, 15]: 2 µg/mL (≈ 5.93 µM)
CLSI %R (resistant) [8, 16]: 13.8%
CLSI %S (susceptible) [8, 16]: 82.8%
MIC Range ([8]; E. faecium, 47 clinical isolates): 0.5 to 16 µg/mL
MIC50 ([8]; Enterococcus faecium, E. faecium, 47 clinical isolates, read-out: MIC50): 2 µg/mL (≈ 5.93 µM)
MIC90 ([8]; Enterococcus faecium, E. faecium, 47 clinical isolates, read-out: MIC90): 4 µg/mL (≈ 11.9 µM)
MIC50 ([9]; read-out: MIC50): 16 µg/mL (≈ 47.4 µM)
MIC90 ([9]; read-out: MIC90): > 32 µg/mL
MIC [10]: 8 µg/mL (≈ 23.7 µM)
MIC (CIP-resistant S. aureus): 2 µg/mL (≈ 5.93 µM)
MIC [11]: 8 µg/mL (≈ 23.7 µM)
MIC [12]: 16 µg/mL (≈ 47.4 µM)
MIC (MRSA): 4 µg/mL (≈ 11.9 µM)
MIC [13]: 2 µg/mL (≈ 5.93 µM)

From publication PMC6514978, “Synthesis, Antibacterial Activities, Mode of Action and Acute Toxicity Studies of New Oxazolidinone-Fluoroquinolone Hybrids” (Molecules, 2019)
